The results in this text go back to the supplement of paper PMC7806825.

The test system of this data set is McpC ligand-binding domain (Salmonella Typhimurium SL1344). Kind of data set: protein melting temperature (Tm) in presence of compound (degrees C); higher = more thermal stabilisation (possible ligand binding). Conditions: compound stock concentration: 10-20 mM, 2 uL in 10 uL reaction.

With `OC[C@@H](O)[C@@H](O)CO` [i-Erythritol], the protein melting temperature (Biolog plate: PM02A) amounted to 43.7. For `Cc1ncc(CO)c(CN)c1O` [Pyridoxamine], the protein melting temperature (Biolog plate: PM05) amounted to 43.9.

Turning to `N[C@@H](CS(=O)O)C(=O)O` [L-Cysteine Sulfinic acid], the protein melting temperature (Biolog plate: PM04A) amounted to 43.

For the molecule `O=C(O)c1cccnc1C(=O)O` [Quinolinic acid], under “Biolog plate: PM05”, the protein melting temperature was 43.8. On to `N[C@@H](CS)C(=O)NCC(=O)O` [Cys-Gly], for which the protein melting temperature (Biolog plate: PM04A) was 42.9. As for `O=C(O)CC(CC(=O)O)C(=O)O` [Tricarballylic acid], the protein melting temperature (Biolog plate: PM01) came out at 44.3. `N[C@@H]1[C@@H](O)[C@H](O)[C@@H](COP(=O)(O)O)O[C@@H]1O` [D-Glucosamine-6-Phosphate]: the protein melting temperature (Biolog plate: PM04A) amounted to 44.1. On to `CCCCS(=O)(=O)O` [Butane Sulfonic acid], for which the protein melting temperature (Biolog plate: PM04A) stood at 44.4.

As for `O=C(O)CCCCCCCCC(=O)O` [Sebacic acid], for the setting “Biolog plate: PM02A”, the protein melting temperature was determined as 44.8. As for `NC(=O)C[C@@H](N)C(=O)O` [D-Asparagine], the protein melting temperature (Biolog plate: PM03B) came out at 44.8. `N[C@@H](Cc1ccc(O)cc1)C(=O)O` [L-Tyrosine]: the protein melting temperature worked out at 44.8 (Biolog plate: PM03B) and 43.9 (Biolog plate: PM05). Consider `C[C@H](N)C(=O)N[C@@H](Cc1cnc[nH]1)C(=O)O` [Ala-His], for which the protein melting temperature (Biolog plate: PM03B) was found to be 45.3.

As for `OC[C@@]12OC[C@@H](O1)[C@@H](O)[C@@H](O)[C@@H]2O` [Sedoheptulosan], where the note is “Biolog plate: PM02A”, the protein melting temperature came out at 44.3. In the case of `O=C(O)[C@@H](O)[C@@H](O)[C@H](O)[C@@H](O)C(=O)O` [D-Saccharic acid], the protein melting temperature (Biolog plate: PM01) is 44.4. `NCC(=O)N1CCC[C@H]1C(=O)O` [Gly-Pro]: the protein melting temperature (Biolog plate: PM01) was found to be 44.2.

Consider `Nc1nc2c(ncn2[C@@H]2O[C@H](CO)[C@@H](O)[C@H]2O)c(=O)[nH]1` [Guanosine], for which the protein melting temperature by setting is: (Biolog plate: PM03B) 45.5; (Biolog plate: PM05) 44.5. Regarding `Nc1ccc(S(=O)(=O)O)cc1` [p-Aminobenzene Sulfonic acid], where the note is “Biolog plate: PM04A”, the protein melting temperature is 44.5. Regarding `CC(=O)CC(=O)O` [Acetoacetic acid], the protein melting temperature (Biolog plate: PM01) is 44.6. Consider `OC[C@@H](O)[C@@H](O)[C@H](O)[C@@H](O)CO` [D-Sorbitol], for which, where the note is “Biolog plate: PM01”, the protein melting temperature came to 45. In the case of `NC(N)=S` [Thiourea], the protein melting temperature (Biolog plate: PM04A) stood at 44.6. In the case of `O=c1[nH]cnc2c1ncn2[C@@H]1O[C@H](CO)[C@@H](O)[C@H]1O` [Inosine], the protein melting temperature amounted to 44.4 (Biolog plate: PM01), 44.6 (Biolog plate: PM03B) and 44.6 (Biolog plate: PM05). As for `NC(=O)[C@H]1O[C@@H](O)[C@H](O)[C@@H](O)[C@@H]1O` [Glucuronamide], the protein melting temperature is, setting by setting: (Biolog plate: PM01) 44.9; (Biolog plate: PM03B) 45.7. In the case of `NCC(=O)N[C@@H](CC(=O)O)C(=O)O` [Gly-Asp], for the setting “Biolog plate: PM01”, the protein melting temperature was found to be 44.4. The same measure, in the same setting: next, `OC[C@H]1O[C@H](O[C@H]2[C@H](O)[C@@H](O)[C@@H](O[C@H]3[C@H](O)[C@@H](O)[C@@H](O)O[C@@H]3CO)O[C@@H]2CO)[C@H](O)[C@@H](O)[C@@H]1O` [Maltotriose]: 44. For the molecule `CSCC[C@H](NC(=O)CN)C(=O)O` [Gly-Met], the protein melting temperature reads like this: (Biolog plate: PM03B) 45.2; (Biolog plate: PM04A) 43.8. For the molecule `O=C(O)c1cc(C(=O)O)c2c(n1)C(=O)C(=O)c1cc(C(=O)O)[nH]c1-2` [Pyrrolo-Quinoline Quinone], the protein melting temperature (Biolog plate: PM05) amounted to 43. On the same count and under the same terms, as for `NCC(=O)CCC(=O)O` [d-Amino-levulinic acid], the figure is 43.8. With `COC(=O)C(C)=O` [Methylpyruvate], the protein melting temperature (Biolog plate: PM01) came to 44.9. In the case of `C[C@@H](O)[C@H](N)C(=O)O` [L-Threonine], the protein melting temperature is, setting by setting: (Biolog plate: PM01) 44; (Biolog plate: PM03B) 44.8; (Biolog plate: PM05) 43.8. For `Cc1cn([C@H]2C[C@H](O)[C@@H](CO)O2)c(=O)[nH]c1=O` [Thymidine] the same measures were 44.6, 45.1 and 44.7. With `CCCCCCCC/C=C\CCCCCCCC(=O)OCCOCC(OCCO)C1OCC(OCCO)C1OCCO` (centres undefined) [Tween 80], the protein melting temperature reads like this: (Biolog plate: PM01) 45.3; (Biolog plate: PM05) 43.9. On to `Cc1ncc(CO)c(CO)c1O` [Pyridoxine], for which, under “Biolog plate: PM05”, the protein melting temperature is 43.8. `O=C1NC(=O)C(=O)N1` [Parabanic acid]: where the note is “Biolog plate: PM03B”, the protein melting temperature was 44.

As to `CC(O)CO` (centres undefined) [1,2-Propanediol], the protein melting temperature (Biolog plate: PM01) was 44.8. As for `C[C@@H](O)CC(=O)O` [b-Hydroxybutyric acid], the protein melting temperature (Biolog plate: PM02A) worked out at 44.6.

As for `O=c1ccn([C@@H]2O[C@H](CO)[C@@H](O)[C@H]2OP(=O)(O)O)c(=O)[nH]1` [Uridine 2`-Monophosphate], the protein melting temperature (Biolog plate: PM04A) was 43.8. `N[C@@H](CCC(=O)N[C@@H](CS)C(=O)NCC(=O)O)C(=O)O` [Glutathione]: the protein melting temperature (Biolog plate: PM04A) was 43.7 and the protein melting temperature (Biolog plate: PM05) amounted to 43.6. For `O=C(O)COP(=O)(O)O` [Phospho-Glycolic acid], the protein melting temperature (Biolog plate: PM04A) worked out at 43.5. On the same count and under the same terms, as for `CC(=O)N[C@@H](CS)C(=O)O` [N-Acetyl-L-Cysteine], the figure is 43.7. Turning to `Nc1nc2[nH]cnc2c(=O)[nH]1` [Guanine], the protein melting temperature by setting is: (Biolog plate: PM03B) 44.7; (Biolog plate: PM05) 44.4. Regarding `NCCCCN=C(N)N` [Agmatine], the protein melting temperature (Biolog plate: PM03B) was found to be 44.1. As to `CCC(=O)O` [Propionic acid], where the note is “Biolog plate: PM01”, the protein melting temperature is 44.9. On to `N[C@@H](CCC(=O)O)C(=O)O` [L-Glutamic acid], for which the protein melting temperature (Biolog plate: PM01) is 44.2, the protein melting temperature (Biolog plate: PM03B) was 44.8 and the protein melting temperature (Biolog plate: PM05) amounted to 44.2.

For `Cc1cn([C@H]2C[C@H](OP(=O)(O)O)[C@@H](CO)O2)c(=O)[nH]c1=O` [Thymidine 3`-Monophosphate], the protein melting temperature (Biolog plate: PM04A) is 43.6. As to `O=c1[nH]cnc2nc[nH]c12` [Hypoxanthine], the protein melting temperature (Biolog plate: PM05) was 44. Take `CO[C@@H]1OC[C@@H](O)[C@H](O)[C@H]1O` [b-Methyl-D-Xyloside]: the protein melting temperature (Biolog plate: PM02A) came out at 44.2. On to `O=C[C@H](O)[C@@H](O)[C@H](O)[C@H](O)CO[C@@H]1O[C@H](CO)[C@@H](O)[C@H](O)[C@H]1O` [Gentiobiose], for which, where the note is “Biolog plate: PM02A”, the protein melting temperature is 44.5.

`OC[C@H](O)C(O)[C@@H](O)CO` [L-Arabitol]: the protein melting temperature (Biolog plate: PM02A) turned out to be 43.8. On to `O=C(O)c1cc(=O)[nH]c(=O)[nH]1` [Orotic acid], for which the protein melting temperature (Biolog plate: PM05) was 43. On to `NC(=O)CC[C@H](N)C(=O)O` [L-Glutamine], for which the protein melting temperature runs as follows: (Biolog plate: PM01) 44; (Biolog plate: PM03B) 45.1; (Biolog plate: PM05) 44.9. For the molecule `O=C(CO)[C@@H](O)[C@@H](O)[C@H](O)CO` [D-Tagatose], the protein melting temperature (Biolog plate: PM02A) was 44. Regarding `O=S(=O)(O)CCO` [2-Hydroxyethane Sulfonic acid], where the note is “Biolog plate: PM04A”, the protein melting temperature was found to be 44.6. As to `CO[C@H]1O[C@H](CO)[C@@H](O)[C@H](O)[C@H]1O` [a-Methyl-D-Glucoside], the protein melting temperature (Biolog plate: PM02A) was determined as 44.2. `Nc1nc2c(ncn2[C@@H]2O[C@H](COP(=O)(O)O)[C@@H](O)[C@H]2O)c(=O)[nH]1` [Guanosine 5`-Monophosphate]: the protein melting temperature (Biolog plate: PM04A) was 43.9. Turning to `OC[C@H]1O[C@@H]2O[C@H]3[C@H](O)[C@@H](O)[C@@H](O[C@H]4[C@H](O)[C@@H](O)[C@@H](O[C@H]5[C@H](O)[C@@H](O)[C@@H](O[C@H]6[C@H](O)[C@@H](O)[C@@H](O[C@H]7[C@H](O)[C@@H](O)[C@@H](O[C@H]8[C@H](O)[C@@H](O)[C@@H](O[C@H]9[C@H](O)[C@@H](O)[C@@H](O[C@H]1[C@H](O)[C@H]2O)O[C@@H]9CO)O[C@@H]8CO)O[C@@H]7CO)O[C@@H]6CO)O[C@@H]5CO)O[C@@H]4CO)O[C@@H]3CO` [g-Cyclodextrin], where the note is “Biolog plate: PM02A”, the protein melting temperature turned out to be 44.7. Consider `C[C@@H](OP(=O)(O)O)[C@H](N)C(=O)O` [O-Phospho-L-Threonine], for which the protein melting temperature (Biolog plate: PM04A) amounted to 44. Consider `O[C@@H]1[C@@H](O)[C@@H](O)CO[C@H]1O` [L-Arabinose], for which the protein melting temperature (Biolog plate: PM01) is 44.5.

Regarding `N[C@@H](CC(=O)O)C(=O)O` [L-Aspartic acid], the protein melting temperature by setting is: (Biolog plate: PM01) 44.5; (Biolog plate: PM03B) 45.4; (Biolog plate: PM05) 44.2. Regarding `O=C(O)c1ccccc1O` [2-Hydroxybenzoic acid], under “Biolog plate: PM02A”, the protein melting temperature was 45.4. As for `N[C@@H](Cc1c[nH]c2ccccc12)C(=O)O` [L-Tryptophan], the protein melting temperature reads like this: (Biolog plate: PM03B) 44.4; (Biolog plate: PM05) 44. With `CCC(=O)C(=O)O` [a-Ketobutyric acid], the protein melting temperature is, setting by setting: (Biolog plate: PM01) 43.9; (Biolog plate: PM05) 44. As to `NC(=O)c1ccc[n+](C2OC(COP(=O)([O-])OP(=O)(O)OCC3OC(n4cnc5c(N)ncnc54)C(O)C3O)C(O)C2O)c1` (centres undefined) [b-Nicotinamide Adenine Dinucleotide], the protein melting temperature (Biolog plate: PM05) stood at 44.8. Still for that read-out and setting: next, `NC(=O)c1cccnc1` [Nicotinamide]: 43.7. For the molecule `OC1OC[C@@H](O)[C@@H](O)[C@@H]1O` (stereo partly drawn) [D-Arabinose], the protein melting temperature (Biolog plate: PM02A) came out at 43.6. For the molecule `NC(=O)CCCCC1CCSS1` (racemic) [DL-Lipoamide], for the setting “Biolog plate: PM04A”, the protein melting temperature was 44.4. Still for that read-out and setting: next, `CSCCC(NC(C)=O)C(=O)O` (racemic) [N-Acetyl-D,L-Methionine]: 43.7. Take `O=C(O)[C@@H]1C[C@@H](O)CN1` [Hydroxy-L-Proline]: the protein melting temperature (Biolog plate: PM02A) is 44.2 and the protein melting temperature (Biolog plate: PM05) was 43.8.
